Measured values taken from ChEMBL document CHEMBL1145238, “Selective PPARgamma modulators with improved pharmacological profiles” (Bioorg Med Chem Lett, 2005).
Values belong to the molecule of their own block, whether it stands above or below them.

What was measured:
[1] = molecular target: T1, Peroxisome proliferator-activated receptor gamma (Homo sapiens, UniProt P37231); assay: Inhibition of human peroxisome proliferator activated receptor gamma binding
T1 sequence (P37231 whole entry): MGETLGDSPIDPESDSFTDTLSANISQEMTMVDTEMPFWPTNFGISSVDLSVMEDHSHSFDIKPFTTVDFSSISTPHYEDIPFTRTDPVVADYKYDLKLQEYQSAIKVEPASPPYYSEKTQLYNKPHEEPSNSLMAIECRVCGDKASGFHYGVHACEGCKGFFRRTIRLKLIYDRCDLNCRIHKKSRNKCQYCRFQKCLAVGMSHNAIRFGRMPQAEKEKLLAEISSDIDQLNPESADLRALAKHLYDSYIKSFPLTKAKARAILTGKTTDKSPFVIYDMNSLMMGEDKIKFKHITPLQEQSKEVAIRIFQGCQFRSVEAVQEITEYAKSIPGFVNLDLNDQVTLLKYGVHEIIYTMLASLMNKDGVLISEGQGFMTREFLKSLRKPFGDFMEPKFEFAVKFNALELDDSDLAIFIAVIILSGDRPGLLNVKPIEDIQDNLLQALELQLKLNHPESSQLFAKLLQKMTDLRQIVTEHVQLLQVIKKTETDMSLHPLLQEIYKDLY

[2] = molecular target: T1, Peroxisome proliferator-activated receptor gamma
Description: Maximal intrinsic response against peroxisome proliferator activated receptor gamma transactivation

[3] = Area under plasma concentration time curve when administered to Sprague Dawley rats after once daily dosing for two weeks; format: ADME; settings: rat
[4] = mouse, in vivo, 10 mg/kg
Description: Area under plasma concentration time curve when administered to db/db mice at 10 mg/kg dose; Range = 250-700 uMh

Cytochrome P450 2C9 = Cytochrome P450 2C9 (Homo sapiens, UniProt P11712); assay: Inhibitory concentration against Cytochrome P450 2C9 in rats
[5] = Area under plasma concentration time curve when administered to db/db mice at 30 mg/kg dose; format: ADME, organism-based; set-up: dose 30 mg/kg; settings: mouse, in vivo

Cytochrome P450 2C9, sequence (P11712 whole entry): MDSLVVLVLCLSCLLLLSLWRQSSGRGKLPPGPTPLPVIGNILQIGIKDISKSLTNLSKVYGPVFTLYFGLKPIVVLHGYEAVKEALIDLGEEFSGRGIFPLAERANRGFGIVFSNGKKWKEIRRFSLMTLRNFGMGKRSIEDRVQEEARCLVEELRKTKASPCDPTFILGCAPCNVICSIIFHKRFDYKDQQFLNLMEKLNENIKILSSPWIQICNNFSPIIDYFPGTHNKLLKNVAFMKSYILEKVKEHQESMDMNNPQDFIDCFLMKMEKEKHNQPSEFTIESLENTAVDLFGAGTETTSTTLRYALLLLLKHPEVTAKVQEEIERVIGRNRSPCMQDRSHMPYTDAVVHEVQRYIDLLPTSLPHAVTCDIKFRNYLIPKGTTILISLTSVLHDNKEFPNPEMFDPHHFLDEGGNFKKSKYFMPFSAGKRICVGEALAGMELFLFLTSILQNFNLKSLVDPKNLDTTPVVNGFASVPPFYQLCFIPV

Structure (SMILES): CCCc1c(Oc2c(C)n(-c3noc4cc(Cl)ccc34)c3ccc(OC(F)(F)F)cc23)cccc1O[C@@H](C)C(=O)O
- IC50 [1]: 641 nM

Structure (SMILES): Cc1[nH]c2ccc(OC(F)(F)F)cc2c1Cc1cccc(O[C@@H](C)C(=O)O)c1
- IC50 (Cytochrome P450 2C9): 50 nM

Structure (SMILES): COc1ccc(-n2c(C)c(Cc3cccc(O[C@@H](C)C(=O)O)c3)c3cc(OC(F)(F)F)ccc32)cc1
- IC50 [1]: 1 nM
- EC50 [2]: 3 nM

Structure (SMILES): Cc1c(Cc2cccc(O[C@@H](C)C(=O)O)c2)c2cc(OC(F)(F)F)ccc2n1-c1ccccn1
- IC50 [1]: 466 nM

Structure (SMILES): COc1ccc2nc(-n3c(C)c(Cc4cccc(O[C@@H](C)C(=O)O)c4)c4cc(OC(F)(F)F)ccc43)ccc2c1
- IC50 [1]: 135 nM

Structure (SMILES): COc1ccc2ncc(-n3c(C)c(Cc4cccc(O[C@@H](C)C(=O)O)c4)c4cc(OC(F)(F)F)ccc43)cc2c1
- IC50 [1]: 29 nM
- EC50 [2]: 49 nM

Structure (SMILES): COc1ccc2c(-n3c(C)c(Cc4cc(O[C@H](C)C(=O)O)ccc4Cl)c4cc(OC(F)(F)F)ccc43)noc2c1
- IC50 [1]: 2 nM
- AUC [5]: 660 uMh
- AUC [3]: 1030 uMh
- EC50 [2]: 3 nM

Structure (SMILES): Cc1c(Oc2ccc(Cl)c(O[C@@H](C)C(=O)O)c2)c2cc(OC(F)(F)F)ccc2n1-c1noc2cc(Cl)ccc12
- IC50 [1]: 1 nM
- EC50 [2]: 3 nM

Further lines, results first:

- IC50 [1]: 42 nM
- EC50 [2]: 16 nM
Structure (SMILES): COc1ccc(C(=O)n2c(C)c(Cc3cccc(OCC#N)c3)c3cc(OC(F)(F)F)ccc32)cc1

- AUC [3]: 2700 uMh
- AUC [4]: 700 uMh
Structure (SMILES): CN(CCOc1ccc(CC2SC(=O)NC2=O)cc1)c1ccccn1 (stereo not given) [ROSIGLITAZONE]

- IC50 [1]: > 50000 nM
- EC50 [2]: > 3000 nM
Structure (SMILES): CN1C(=O)SC(Cc2ccc(OCCN(C)c3ccccn3)cc2)C1=O (stereo not given)

- IC50 [1]: 20 nM
- EC50 [2]: 39 nM
Structure (SMILES): CCCc1ccc(Oc2c(C)n(-c3noc4cc(Cl)ccc34)c3ccc(OC(F)(F)F)cc23)cc1O[C@@H](C)C(=O)O

- IC50 [1]: 33 nM
- EC50 [2]: 195 nM
Structure (SMILES): Cc1c(Oc2cccc(O[C@@H](C)C(=O)O)c2)c2cc(OC(F)(F)F)ccc2n1-c1noc2cc(Cl)ccc12

- IC50 [1]: 109 nM
- EC50 [2]: 114 nM
Structure (SMILES): Cc1c(Oc2cc(Cl)cc(O[C@@H](C)C(=O)O)c2)c2cc(OC(F)(F)F)ccc2n1-c1noc2cc(Cl)ccc12

- IC50 [1]: 62 nM
- EC50 [2]: 31 nM
Structure (SMILES): C#CCOc1cccc(Cc2c(C)n(C(=O)c3ccc(OC)cc3)c3ccc(OC(F)(F)F)cc23)c1

- IC50 [1]: 5 nM
- EC50 [2]: 3 nM
Structure (SMILES): Cc1c(Oc2cc(O[C@@H](C)C(=O)O)ccc2Cl)c2cc(OC(F)(F)F)ccc2n1-c1noc2cc(Cl)ccc12
